System: BN-472 metastasizing breast tumor
Assay: anti-tumor and anti-metastatic efficacy in the BN-472 metastasizing breast tumor model
Type: in vivo, brown Norwegian rats
Conditions: oral administration, daily doses of 0.2 or 2 mg/kg for three weeks, rats
Experimental: Experiments were carried out in order to investigate the anti-tumor efficacy and anti-metastatic efficacy of WX-771, WX-780 and WX-781.
The assay system used was the BN-472 metastasizing breast tumor in brown Norwegian rats. The kind of tumor tissue used is described, for example, in Kort et al., J. Natl. Cancer Inst. 72 (1984) 709-713. The rats were purchased from Harlan Nederland, NL 5960-AD Horst, the Netherlands, and were from six to eight weeks old with a weight of from 128 g to 170 g.
(4-Chlorobenzylsulfonyl-D-Ser-Gly-4-guanidinobenzyl-amide, hydrochloride salt) whose anti-tumor and anti-metastatic efficacy with subcutaneous injection had been disclosed was also studied for comparative purposes. For administration, 0.75 mg of WX-340 was dissolved in 20 ml of 5% (weight/volume) D-manitol in water and administered by subcutaneous injection in doses of 0.2 mg of drug/kg of rat.
A phosphatidylcholine vehicle was administered as control and was obtained by introducing 400 mg of soya phosphatidylcholine in 20 ml of phosphate-buffered saline and 400 μl of absolute ethanol. 0.8 ml of the suspension was administered orally to the rats as control.
WX-771 (7.5 mg) was introduced into 20 ml of a soya phosphatidylcholine solution as used also for the control. To administer 2 mg/kg, 0.8 ml of this suspension was administered orally. For a second group, the stock solution was diluted 1:10 to obtain a dose of 0.2 mg/kg when administering likewise 0.8 ml per rat.
(§1) WX-780 (7.5 mg) was introduced into 20 ml of a soya phosphatidylcholine suspension according to the above-described control suspension. To administer a dose of 2 mg/kg, the rats were given 0.8 ml of said suspension. To administer a dose of 0.2 mg/kg, the stock solution was diluted 1:10, with 0.8 ml per rat still being administered.
as §1, with “WX-781” for “WX-780”, “orally.” for “of said suspension.”, “ml/rat” for “ml per rat”, “administered orally.” for “administered.”

| Structure (SMILES) | anti-metastatic action | anti-tumor action |
| --- | --- | --- |
| CC(C)(C)C(=O)OC[C@@H](NS(=O)(=O)Cc1ccc(Cl)cc1)C(=O)NCC(=O)NCc1ccc(NC(=N)NOC(=O)C(C)(C)C)cc1 [WX-771] | significant | significant |
| C[C@@H](C(=O)NCc1ccc(Nc2noc(C(C)(C)C)n2)cc1)N(C)C(=O)[C@@H](COC(=O)C(C)(C)C)NS(=O)(=O)Cc1ccc(Cl)cc1 [WX-780] | significant | significant |
| CC(C)(C)C(=O)OC[C@@H](NS(=O)(=O)Cc1ccc(Cl)cc1)C(=O)NCC(=O)NCc1ccc(Nc2noc(C(C)(C)C)n2)cc1 [WX-781] | significant | significant |

— patent publication US20090286837A1, “Oxadiazole compounds as urokinase inhibitors” (priority 2005, published 2009)
